Experimental data reported in patent US11337970B2, “Inhibitors of indoleamine 2,3-dioxygenase and methods of their use” (BRISTOL-MYERS SQUIBB COMPANY, priority 2016, dated 2022).

Experiments:
human IDO1 = biological target: T1, human IDO1 (Homo sapiens, UniProt P14902); assay: IDO inhibition assay in HEK293 cells stably expressing human IDO1 (kynurenine, Ehrlich reagent); assay type: cell-based; conditions: 20 hours incubation, absorbance at 490 nm, read-out: IDO1 HEK Human IC50
T1 construct: expressed in transfected cells
T1 sequence (P14902 whole entry): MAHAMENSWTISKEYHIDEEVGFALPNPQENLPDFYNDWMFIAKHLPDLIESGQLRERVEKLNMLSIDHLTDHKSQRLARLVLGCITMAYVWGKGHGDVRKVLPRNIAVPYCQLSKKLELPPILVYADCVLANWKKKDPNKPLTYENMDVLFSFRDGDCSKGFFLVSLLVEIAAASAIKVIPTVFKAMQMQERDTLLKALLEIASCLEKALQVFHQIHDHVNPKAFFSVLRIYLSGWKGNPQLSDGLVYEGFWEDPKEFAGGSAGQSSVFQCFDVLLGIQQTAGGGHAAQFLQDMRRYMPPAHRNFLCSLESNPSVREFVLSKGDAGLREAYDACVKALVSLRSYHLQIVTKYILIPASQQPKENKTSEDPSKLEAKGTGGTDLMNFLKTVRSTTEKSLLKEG
Experimental: HEK293 cells were transfected with a pCDNA-based mammalian expression vector harboring human IDO1 cDNA (NM 002164.2) by electroporation. They were cultured in medium (DMEM with 10% FBS) containing 1 mg/ml G418 for two weeks. Clones of HEK293 cells that stably expressed human IDO1 protein were selected and expanded for IDO inhibition assay.
The human IDO1/HEK293 cells were seeded at 10,000 cells per 50 μL per well with RPMI/phenol red free media contains 10% FBS in a 384-well black wall clear bottom tissue culture plate (Matrix Technologies LLC) 100 nL of certain concentration of compound was then added to each well using ECHO liquid handling systems. The cells were incubated for 20 hours in 37° C. incubator with 5% CO2.
The compound treatments were stopped by adding trichloroacetic acid (Sigma-Aldrich) to a final concentration at 0.2%. The cell plate was further incubated at 50° C. for 30 minute. The equal volume supernatant (20 μL) and 0.2% (w/v) Ehrlich reagent (4-dimethylaminobenzaldehyde, Sigma-Aldrich) in glacial acetic acid were mixed in a new clear bottom 384-well plate. This plate was then incubated at room temperature for 30 minute. The absorbance at 490 nm was measured on Envision plate reader.
Compound IC50 values were calculated using the counts of 500 nM of a reference standard treatment as one hundred percent inhibition, and counts of no compound but DMSO treatment as zero percent inhibition.

[1] = biological target: T2, indoleamine 2,3-dioxygenase (IDO) (Homo sapiens, UniProt P14902); assay: HeLa cell-based indoleamine 2,3-dioxygenase (IDO) assay (kynurenine production); conditions: HeLa cells, IFNγ 25 ng/mL, 48 hour incubation, absorbance at 480 nm
T2 construct: host or cells: HeLa cells stimulated with IFNγ (25 ng/mL)
T2 sequence (P14902 whole entry): as above
Experimental: Assessment of inhibitor activity in HeLa cell-based indoleamine 2,3-dioxygenase (IDO) assay:
HeLa (ATCC® CCL-2) cells were obtained from the ATCC® and cultured in Dulbecco's Modified Eagle Medium supplemented with 4.5 g/L glucose, […] (#10-013-CV, Corning), 2 mM L-alanyl-L-glutamine dipeptide (#35050-061, Gibco), 100U/mL penicillin, 100 μg/mL streptomycin (#SV30010, HyClone) and 10% fetal bovine serum (#SH30071.03 HyClone). Cells were maintained in a humidified incubator at 37° C. in 5% CO2.
IDO activity was assessed as a function of kynurenine production as follows: HeLa cells were seeded in a 96-well culture plate at a density of 5,000 cells/well and allowed to equilibrate overnight. After 24 hours, the media was aspirated and replaced with media containing IFNγ (#285-IF/CF, R&D Systems) at a final concentration of 25 ng/mL. A serial dilution of each test compound was added to the cells in a total volume of 200 μL of culture medium. After a further 48 hour incubation, 170 μL of supernatant was transferred from each well to a fresh 96-well plate. 12.1 μL of 6.1N trichloroacetic acid (#T0699, Sigma-Aldrich) was added to each well and mixed, followed by incubation at 65° C. for 20 minutes to hydrolyze N-formylkynurenine, the product of indoleamine 2,3-dioxygenase, to kynurenine. The reaction mixture was then centrifuged for 10 mins at 500×g to sediment the precipitate. 100 μL of the supernatant was transferred from each well to afresh 96-well plate. 100 μl of 2% (w/v) p-dimethylaminobenzaldehyde (#15647-7, Sigma-Aldrich) in acetic acid (#A6283, Sigma-Aldrich) was added to each well mixed and incubated at room temperature for 20 mins. Kynurenine concentrations were determined by measuring absorbance at 480 nm and calibrating against an L-kynurenine (#K8625, Sigma-Aldrich) standard curve using a SPECTRAMAX® M2e microplate reader (Molecular Devices). The percentage activity at each inhibitor concentration was determined and IC50 values assessed using nonlinear regression.

| Compound | IC50 (human IDO1) [nM] | IC50 [1] [nM] |
| --- | --- | --- |
| C[C@@H](c1nc2ncc(Cl)cc2[nH]1)[C@H]1CC[C@@H](c2ccnc3ccc(F)cc32)CC1 [Example 6, 4-((cis)-4-((R)-1-(6-chloro-1H-imidazo[4,5-b]pyridin-2-yl)ethyl)cyclohexyl)-6-fluoroquinoline] | 7 | 4.5 |
| CCC(c1nc2ccc(Cl)cc2[nH]1)[C@H]1CC[C@H](Oc2ccnc3ccccc23)CC1 (single isomer, unassigned) [Example 13-2, 4-(((trans)-4-(1-(6-chloro-1H-benzo[d]imidazol-2-yl)propyl)cyclohexyl)oxy)quinoline] | 3.4 | 8.9 |
| C[C@@H](Nc1nc2ccc(Cl)cc2o1)[C@H]1CC[C@@H](c2ccnc3ccc(F)cc32)CC1 [Example 11, 6-chloro-N-((R)-1-((cis)-4-(6-fluoroquinolin-4-yl)cyclohexyl)ethyl)benzo[d]oxazol-2-amine] | 40.9 | 40.9 |
| CC[C@H](c1nc2ccc(Cl)cc2[nH]1)[C@H]1CC[C@@H](c2ccnc3ccc(F)cc32)CC1 (single isomer, unassigned) [Example 15-3, 4-(4-(1-(6-chloro-1H-benzo[d]imidazol-2-yl)propyl)cyclohexyl)-6-fluoroquinoline] | 0.7 | 3.5 |
| CC(c1nc2ccc(Cl)cc2[nH]1)C1CCC(c2ccnc3ccccc23)CC1 (single isomer, unassigned) [Example 16-2, (±)-4-(4-(1-(6-chloro-1H-benzo[d]imidazol-2-yl)ethyl)cyclohexyl)quinoline] | 4.5 | 5.7 |
| CCC(c1nc2ccc(Cl)cc2[nH]1)[C@H]1CC[C@H](Oc2ccnc3ccccc23)CC1 (single isomer, unassigned) [Example 13-1, 4-(((trans)-4-(1-(6-chloro-1H-benzo[d]imidazol-2-yl)propyl)cyclohexyl)oxy)quinoline] | 4.1 | 5.7 |
| C[C@@H](c1nc2ccc(F)cc2[nH]1)[C@H]1CC[C@@H](c2ccnc3ccc(F)cc32)CC1 [Example 3, 6-fluoro-4-((cis)-4-((R)-1-(6-fluoro-1H-benzo[d]imidazol-2-yl)ethyl)cyclohexyl)quinoline] | 2.7 | 1.5 |
| C=CC[C@@H](c1nc2ccc(Cl)cc2[nH]1)[C@H]1CC[C@@H](c2ccnc3ccc(F)cc32)CC1 [Example 32, 4-((1S,4s)-4-((R)-1-(6-chloro-1H-benzo[d]imidazol-2-yl)but-3-en-1-yl)cyclohexyl)-6-fluoroquinoline] | 2 | 2.8 |
| C[C@@H](c1nc2ncccc2[nH]1)[C@H]1CC[C@@H](c2ccnc3ccc(F)cc32)CC1 [Example 7, 4-((cis)-4-((R)-1-(1H-imidazo[4,5-b]pyridin-2-yl)ethyl)cyclohexyl)-6-fluoroquinoline] | 23.2 | 30.1 |
| C[C@@H](c1nc2ccccc2[nH]1)[C@H]1CC[C@@H](c2ccnc3ccc(F)cc32)CC1 [Example 1, 4-((cis)-4-((R)-1-(1H-benzo[d]imidazol-2-yl)ethyl)cyclohexyl)-6-fluoroquinoline] | 5.2 | 4.7 |
| CCC(c1nc2ccc(Cl)cc2[nH]1)[C@H]1CC[C@@H](Oc2ccnc3ccccc23)CC1 (stereo partly drawn) [Example 52, 4-(((1s,4s)-4-(1-(6-chloro-1H-benzo[d]imidazol-2-yl)propyl)cyclohexyl)oxy)quinoline] | 697 |  |
| (+/−)-Cis and trans-6-chloro-2-(1-(4-(2-(trifluoromethyl)pyridin-4-yl)cyclohexyl)propyl)-1H-benzo[d]imidazole [Example 36] | 26.1 |  |
| CC[C@H](c1nc2ccc(Cl)cc2[nH]1)[C@H]1CC[C@@H](c2ccnc3ccc(F)cc32)CC1 (single isomer, unassigned) [Example 15-4, 4-(4-(1-(6-chloro-1H-benzo[d]imidazol-2-yl)propyl)cyclohexyl)-6-fluoroquinoline] | 6.6 | 9.5 |
| (±)-Cis and trans-6-chloro-2-(1-(4-(2-(trifluoromethyl)pyridin-4-yl)cyclohexyl)ethyl)-1H-benzo[d]imidazole [Example 38] | 62.1 |  |
| C[C@@H](c1nc2ccc(Cl)cc2[nH]1)[C@H]1CC[C@@H](c2ccnc3ccc(F)cc32)CC1 [Example 2, 4-((cis)-4-((R)-1-(6-chloro-1H-benzo[d]imidazol-2-yl)ethyl)cyclohexyl)-6-fluoroquinoline] | 1.8 | 1.1 |
